Data taken from paper PMC11912748, “Image-Guided Monitoring of Mitochondria and Blood–Brain Barrier Dysfunction in Amyotrophic Lateral Sclerosis Mice” (Biomaterials Research, 2025).
Where two headings read alike, the source gives them in different places.

Tests used:
SOD1^G93A mice = assay: Biodistribution and targeting in ALS mouse model by NIR imaging; type: in vivo; conditions: 25 nmol retro-orbital, 4 h post-injection
Experimental: For biodistribution and targeting studies, 12-week-old B6SJLF1/J (SOD1^G93A)1Gur male mice (25 to 30 g) were purchased from the Charles River Laboratories (Wilmington, MA). Animals were housed in an AAALAC-certified facility [Massachusetts General Hospital (MGH) #D16-00361], and all animal studies were performed in accordance with the Public Health Service Policy on Humane Care of Laboratory Animals and approved by the MGH Institutional Animal Care and Use Committee (IACUC) (#N2016000136). […] Each mouse was set on the wire lid of a typical housing cage, which was then turned on its side. It was timed how long it took after the test started for the mouse to stand with at least 2 limbs on the lid. The longest latency was noted after the animals were given 3 chances to stand for a maximum of 3 min per trial. The hemizygous SOD1^G93A mice were selected via genotyping polymerase chain reaction (PCR) assay. Mice were fed chlorophyll-free mouse chow (VWR International. Radnor, PA) at least 5 d prior to imaging to minimize autofluorescence. […]
For all real-time intraoperative imaging, a standardized imaging protocol was employed throughout the procedure using our custom-made imaging system, as previously described. […] The signal-to-background ratio (SBR) was calculated as follows: SBR=IROI/IAuto (2) where IROI denotes the average intensity of an ROI and IAuto represents the intensity of the muscle.

SH-SY5Y cells [1] = assay: Subcellular localization (colocalization with LysoTracker/MitoTracker); type: cell-based, human; conditions: 1 μM, 30 min, 37 °C
Experimental: Human neuroblastoma SH-SY5Y cells [American Type Culture Collection (ATCC), Manassas, VA, USA] were cultured in a 1:1 mixture of Eagle’s minimum essential medium (EMEM; no. 30-2003, ATCC, Manassas, VA, USA) and F12K with 10% FBS and 1% penicillin-streptomycin solution. Cells were grown in a humidified atmosphere of 5% CO2 at 37 °C. The medium was replaced every 3 to 4 d, and cells were subcultured using trypsin–EDTA when 70% to 80% confluent. All media and supplements were purchased from Gibco (Gaithersburg, MD, USA). To optimize the imaging condition in this study, cells were incubated at 37 °C for 10 to 30 min in the presence of 0.1 to 1 μM of ALS04 and ALS05. After washing, the cells were imaged using BioTek Cytation 5. Fluorescence intensity was quantified using the threshold analysis method implemented in the ImageJ software. […] The cells were then washed and stained with NucBlue (2 drops/ml, Live ReadyProbes Reagent, Hoechst 33342, Invitrogen no. R37605), Lysotracker Yellow (5 μM, Invitrogen, no. L12491), and MitoTracker Deep Red (0.5 μM) (Invitrogen, no. M22426) to stain lysosome and mitochondria for 30 min as per the manufacturer’s instruction. […] Mander’s colocalization coefficients were then determined using the Costes method to choose threshold values on ImageJ [24].

SH-SY5Y cells [2] = assay: Cellular uptake inhibition (BSP pretreatment or 4 °C); type: cell-based, human
Experimental: SH-SY5Y cells were seeded on a 24-well plate (Corning Costar, no. 3524) and incubated at 37 °C for 48 h. To determine the role of membrane transporter in ALS04 retention, SH-SY5Y cells were pretreated with 250 μM sulfobromophthalein disodium (BSP; MedChemExpress, HY-D0217) at 37 °C for 20 min. Cells were then incubated with 1 μM of ALS04 and NucBlue (Invitrogen, Hoechst 33342, no. R37605) for 20 min at 37 °C. To evaluate the contribution of diffusion across the plasma membrane, cells were also incubated at 4 °C for 30 min, followed by incubation with 1 μM ALS04 at 4 °C for 20 min. After washing, the cells were imaged using BioTek Cytation 5. The fluorescence intensity of each cell was determined using ImageJ.

[3] = Solubility in 5% BSA in saline; type: physicochemical; conditions: 5% bovine serum albumin in saline, plasma or biological fluid, thermodynamic from solid
Experimental: MarvinSketch (ver. 23.11) and InstantJChem (ver. 23.17) calculator plug-ins (ChemAxon, Budapest, Hungary) were used to calculate in silico physicochemical property, such as molecular weight (MW), the partition and distribution coefficient (LogP and LogD at pH 7.4), surface molecular charge, hydrophobicity, the hydrogen bond acceptors/donors (HBA/HBD), the acid dissociation constant (pKa), the topological polar surface area (TPSA), and BBB score. The BBB score is determined by 5 key physicochemical descriptors, including the number of aromatic rings, the number of heavy atoms, MWHBN (a parameter derived from MW and the number of HBA/HBD), TPSA, and pKa. […] The absorbance and fluorescence emission spectra of ALS04 and ALS05 at varying concentrations were measured in dimethyl sulfoxide (DMSO) using HR2000 absorbance spectrometers (200 to 1,100 nm) and USB2000FL fluorescence spectrometers (350 to 1,000 nm) from Ocean Optics (Dunedin, FL). Fluorescence emission spectra were collected under NIR excitation using a 760-nm laser pointer (Opcom Inc., Xiamen, China). […] The fluorescence emission spectrum was integrated and plotted as a function of absorbance at 755 nm, and a linear fit was applied to determine the slope between fluorescence intensity and absorbance. […] Following this, the solution was centrifuged at 1,500g for 10 min, and the absorbance of the supernatant was measured. […]

SH-SY5Y cells [4] = assay: In vitro model of mitochondrial dysfunction (MPP+); type: cell-based, human; conditions: MPP+ 30, 125, 500 μM for 24 h, then 1 μM for 30 min
Experimental: SH-SY5Y cells were seeded into 6-well plates (Corning Costar, no. 3516) at a density of 12,000 cells/well overnight. Cells were maintained at 37 °C in a humidified atmosphere of 5% CO2. To model mitochondrial dysfunction, undifferentiated and differentiated SH-SY5Y cells were incubated with 30, 125, and 500 μM 1-methyl-4-phenylpyridinium (MPP^+; Neurotoxin agent, Cayman, no. 16958) in the medium for 24 h. The control groups for undifferentiated and differentiated SH-SY5Y cells were treated with the same medium without MPP^+. The cells were then washed with 10% FBS/HBSS. After washing, cells were incubated with 1 μM of ALS04, MitoTracker Deep Red, and NucBlue for 30 min. The cells were imaged using BioTek Cytation 5. The fluorescent intensity of each cell was measured using ImageJ.

[5] = Photostability under continuous 760-nm irradiation in 5% BSA; type: physicochemical; conditions: 5% BSA solution, NIR imaging conditions
Experimental: To investigate the photostability of ALS04 and ALS05, 10 mM stock solutions were diluted to obtain working solutions, with concentrations of 100, 50, 20, and 10 μM in 5% BSA solution, which were then dispensed into a black 96-well plate. Subsequently, the 200-μl working solutions were exposed to continuous irradiation using a 760-nm laser diode at 4 mW/cm^2, with white light (400 to 650 nm) at 40,000 lux, and imaged for 240 min. The fluorescence (%) was calculated by analyzing the measured values with ImageJ v1.52 (National Institutes of Health, Bethesda, MD, USA) using images captured at each time point. The data, presented as mean ± SD, assessed stability by measuring regions of interest (ROIs) and comparing fluorescence intensity against the initial fluorescence signal.

[6] = test system: SH-SY5Y cells and fibroblast NIH3T3 cells; assay: Cytotoxicity, Cell Counting Kit-8 (CCK-8); type: cell-based; conditions: Homo sapiens, 0 to 20 μM, 24 h, read-out: IC50 (cell viability)
Experimental: Cell viability was assessed using Cell Counting Kit-8 (CCK-8) from Dojindo Molecular Technologies Inc. (Kumamoto, Japan). Briefly, SH-SY5Y and NIH3T3 cells were seeded into 96-well plates at a density of 2,500 cells per well. The cells were then treated with 0 to 20 μM of each fluorophore in growth medium for 24 h, and 10% CCK-8 solutions were added to each well. The plates were incubated at 37 °C for 4 h, and absorbance was measured at 450 nm using a SpectraMax M5 plate reader (Molecular Devices). Cell viability (%) = (Asample − Ab)/(Ac − Ab) × 100, where Asample, Ab, and Ac denote the absorbance reading of sample, blanks, and negative control wells, respectively.

CD-1 mice = assay: Biodistribution and clearance by NIR imaging; type: in vivo; conditions: 4 h post-injection
Experimental: (§1) Six-week-old CD-1 mice were used to quantify the blood clearance rate and urinary excretion. Mice were injected with 25 nmol of ALS04 or ALS05 in saline containing 2.5% PEG400 (polyethylene glycol, molecular weight 400) and 5% BSA via intravenous injection under isoflurane anesthesia, and blood was collected in heparinized capillary tubes (Fisher Scientific, Pittsburgh, PA) by tail nick before injection and at 1, 3, 5, 10, 30, 60, 120, 180, and 240 min post-injection and then stored in an icebox to prevent clotting. The supernatants of collected blood were filled into capillary microtubes (Fisher Scientific) after centrifugation. Mice were euthanized with CO2 inhalation to image organs and collect urine from the bladder 4 h post-injection. Collected urine samples were also placed into capillary microtubes. The fluorescence intensities of the microtubes were measured by NIR imaging along with a set of standard ALS04 or ALS05 samples of known concentrations to analyze the pharmacokinetics. Pharmacokinetic analysis was performed using the 2-compartment model (or biexponential decay) to estimate distribution (t1/2α) and elimination (t1/2β) blood half-life, the volume of distribution, and clearance. Results were presented as a biexponential decay curve.
For all real-time intraoperative imaging, a standardized imaging protocol was employed throughout the procedure using our custom-made imaging system, as previously described. Briefly, imaging utilized a 760-nm excitation source at a fluence rate of 4 mW/cm^2 combined with white light illumination (400 to 650 nm) at 40,000 lux. Camera exposure time was adjusted as needed to accurately capture the biodistribution of the fluorophores. Mice were maintained under general anesthesia using isoflurane or a combination of ketamine and xylazine (Webster Veterinary, Fort Devens, MA), and a midline incision was performed to expose the abdominal cavity. For imaging, a general field of view (FOV) of 5 cm in diameter was used to include the pancreas head, duodenum, liver, and kidneys, while a close-up FOV of 3.3 cm in diameter focused specifically on the pancreas head and duodenum. Following imaging, the mice were euthanized using CO₂ inhalation. Major organs, including the heart, lung, liver, pancreas, spleen, kidney, duodenum, intestine, and muscle, were excised and imaged ex vivo to evaluate fluorophore biodistribution and excretion pathways. The signal-to-background ratio (SBR) was calculated as follows: SBR=IROI/IAuto (2) where IROI denotes the average intensity of an ROI and IAuto represents the intensity of the muscle.

[7] = Pharmacokinetics after single intravenous injection (2-compartment model); type: in vivo, CD-1 mice; conditions: 25 nmol i.v. in 2.5% PEG400 and 5% BSA in saline; for half-life: 25 nmol
Experimental: as §1

[8] = Optical properties (absorbance, fluorescence, quantum yield) in DMSO; type: physicochemical
Experimental: MarvinSketch (ver. 23.11) and InstantJChem (ver. 23.17) calculator plug-ins (ChemAxon, Budapest, Hungary) were used to calculate in silico physicochemical property, such as molecular weight (MW), the partition and distribution coefficient (LogP and LogD at pH 7.4), surface molecular charge, hydrophobicity, the hydrogen bond acceptors/donors (HBA/HBD), the acid dissociation constant (pKa), the topological polar surface area (TPSA), and BBB score. The BBB score is determined by 5 key physicochemical descriptors, including the number of aromatic rings, the number of heavy atoms, MWHBN (a parameter derived from MW and the number of HBA/HBD), TPSA, and pKa. The final score is computed using stepwise methods for descriptors with discrete values and polynomial weight functions for descriptors with continuous ranges (ChemAxon). The absorbance and fluorescence emission spectra of ALS04 and ALS05 at varying concentrations were measured in dimethyl sulfoxide (DMSO) using HR2000 absorbance spectrometers (200 to 1,100 nm) and USB2000FL fluorescence spectrometers (350 to 1,000 nm) from Ocean Optics (Dunedin, FL). Fluorescence emission spectra were collected under NIR excitation using a 760-nm laser pointer (Opcom Inc., Xiamen, China). […] The fluorescence emission spectrum was integrated and plotted as a function of absorbance at 755 nm, and a linear fit was applied to determine the slope between fluorescence intensity and absorbance. […] A small, accurately weighed amount of each fluorophore was added to a minimal volume of solvents, and the saturated solution was then vortexed and sonicated for 5 min to ensure complete dissolution of the solids. Following this, the solution was centrifuged at 1,500g for 10 min, and the absorbance of the supernatant was measured. The solubility (g/l) was calculated by multiplying the maximum absorbance-derived concentration by the MW of each fluorophore.

[9] = in DMSO, cited from earlier work

CN1/C(=C/C2=CC3=C/C(=C/c4sc5ccccc5[n+]4C)CCC3CC2)Sc2ccccc21 (stereo not shown) [ALS04]
Uptake in BAT of SOD1^G93A mice compared to sham mice (SOD1^G93A mice; 3-month-old asymptomatic mice, ****P ≤ 0.0001): significantly reduced
Signals in ventral temporal (VT) lobe and third ventricle (3v) of ALS mice compared to sham mice (SOD1^G93A mice; **P ≤ 0.01): significantly higher
Colocalization with lysosomes (colocalizing pixels) (SH-SY5Y cells [1]; LysoTracker): 8.5%
Colocalization with mitochondria (colocalizing pixels) (SH-SY5Y cells [1]; MitoTracker): 71%
Fluorescence signal (cellular uptake) after OATP inhibitor BSP (SH-SY5Y cells [2]; 250 μM BSP pretreatment 20 min, then 1 μM for 20 min, ****P ≤ 0.0001): significant reduction
Cellular uptake at 4 °C (SH-SY5Y cells [2]; cells at 4 °C 30 min, then 1 μM at 4 °C for 20 min): significantly reduced
solubility at 5 min [3]: 2530 µg/mL
Colocalization with mitochondria after MPP+ treatment (SH-SY5Y cells [4]): dose-dependent reduction
Photostability (retained fluorescence) at 10 μM ([5]; 10 μM, 240 min): 60%
Photostability (retained fluorescence) ([5]; up to 240 min): over 90%
IC50 [6]: ~1.3 µM
SBR in duodenum or intestine and kidneys (CD-1 mice; 25 nmol): relatively high SBR
Signal in the bladder (CD-1 mice; 25 nmol): Little signal
Clearance route (CD-1 mice; 25 nmol, intravital NIR imaging): both renal and hepatic clearance
Signals in brown adipose tissue (BAT) and pituitary gland (PG) compared to ALS05 (CD-1 mice; 25 nmol, ****P ≤ 0.0001 BAT, *P = 0.0324 PG): highly selective accumulated signals
Ex vivo signal in the gastrointestinal tract (CD-1 mice; resected organs): high signal
Ex vivo signal in the kidney compared to ALS05 (CD-1 mice; resected organs): noticeably higher signal
AUC [7]: 775.6 nmol·min/mL
half-life ([7]; CD-1, mouse, plasma, iv, read-out: t1/2α (distribution blood half-life)): 1.82 min
half-life ([7]; CD-1, mouse, plasma, iv, read-out: t1/2β (elimination blood half-life)): 79.9 min
clearance ([7]; CD-1, mouse, plasma, iv, read-out: Cl (clearance)): 0.067 mL/min
Vd ([7]; CD-1, mouse, plasma, iv, read-out: Vd (volume of distribution)): 0.00296 L
Ext. coeff. (molar absorptivity) [8]: 169,600 M^-1cm^-1
Max. Abs (excitation maximum) [8]: 751 nm
Max. Fl (emission maximum) [8]: 774 nm
QY (quantum yield) ([8]; ICG as reference): 6.0%

CC1(C)C(/C=C/C=C/C=C/C=C2\N(CCCCS(=O)(=O)O)c3ccc4ccccc4c3C2(C)C)=[N+](CCCCS(=O)(=O)[O-])c2ccc3ccccc3c21 [ICG, indocyanine green]
QY (quantum yield) ([9]; reference standard): 13%
Molar absorptivity [9]: 232,000 M^−1 cm^−1
